“Also recorded” adds a separate entry of the source.
What was measured:
[1] = tested on: 24-hydroxylase (24Ohase) gene promoter in ROS 17/2.8 (bone) cells; assay: In vitro transcription assay, 24-hydroxylase gene promoter luciferase reporter; type: cell-based; conditions: for transcriptional activity in bone cells compared to 1α,25-dihydroxyvitamin D3: 24-hydroxylase gene; for EC50: ROS 17/2.8 cells, 16 hours after dosing, read-out: EC50, transcriptional activity in bone cells (24-hydroxylase gene)
Description: Transcription activity was measured in ROS 17/2.8 (bone) cells that were stably transfected with a 24-hydroxylase (24Ohase) gene promoter upstream of a luciferase reporter gene (Arbour et al., 1998). Cells were given a range of doses. Sixteen hours after dosing the cells were harvested and luciferase activities were measured using a luminometer. RLU=relative luciferase units.

[2] = tested on: intestinal calcium transport; assay: Intestinal calcium transport, everted gut sac method; type: in vivo, Sprague-Dawley rats; conditions: vitamin D-deficient rats
Description: (§1) Male, weanling Sprague-Dawley rats were placed on Diet 11 (Suda et al, J. Nutr. 100:1049, 1970) (0.47% Ca)+vitamins AEK for one week followed by Diet 11 (0.02% Ca)+vitamins AEK for 3 weeks. The rats were then switched to the same diet containing 0.47% Ca for one week followed by two weeks on the same diet containing 0.02% Ca. Dose administration began during the last week on 0.02% calcium diet. Four consecutive ip doses were given approximately 24 hours apart. Twenty-four hours after the last dose, blood was collected from the severed neck and the concentration of serum calcium determined by atomic absorption spectrometry as a measure of bone calcium mobilization. The first 10 cm of the intestine was also collected for intestinal calcium transport analysis using the everted gut sac method.

[3] = tested on: Human promyelocytic leukemia (HL60) cells; assay: HL-60 cell differentiation (nitro blue tetrazolium reduction); type: cell-based; conditions: for EC50: HL60 cells, 4 days
Description: The study drugs were dissolved in ethanol and the concentrations determined using UV spectrophotometry. Serial dilutions were prepared so that a range of drug concentrations could be tested without changing the final concentration of ethanol (≦0.2%) present in the cell cultures.
Human promyelocytic leukemia (HL60) cells were grown in RPMI-1640 medium containing 10% fetal bovine serum. The cells were incubated at 37° C. in the presence of 5% CO2.
HL60 cells were plated at 1.2×10^5 cells/ml. Eighteen hours after plating, cells in duplicate were treated with drug. Four days later, the cells were harvested and a nitro blue tetrazolium reduction assay was performed (Collins et al., 1979; J. Exp. Med. 149:969-974). The percentage of differentiated cells was determined by counting a total of 200 cells and recording the number that contained intracellular black-blue formazan deposits. Verification of differentiation to monocytic cells was determined by measuring phagocytic activity (data not shown).

[4] = biological target: T1, full-length recombinant rat vitamin D receptor (Rattus norvegicus, UniProt P13053); assay: Vitamin D receptor competitive binding with [3H]-1,25(OH)2D3; conditions: full-length recombinant rat VDR
T1 construct: Full-length recombinant rat receptor was expressed in E. coli; histidine tag (C); made in house; host or cells: E. coli BL21 (DE3) Codon Plus RIL
T1 sequence (P13053 1-423): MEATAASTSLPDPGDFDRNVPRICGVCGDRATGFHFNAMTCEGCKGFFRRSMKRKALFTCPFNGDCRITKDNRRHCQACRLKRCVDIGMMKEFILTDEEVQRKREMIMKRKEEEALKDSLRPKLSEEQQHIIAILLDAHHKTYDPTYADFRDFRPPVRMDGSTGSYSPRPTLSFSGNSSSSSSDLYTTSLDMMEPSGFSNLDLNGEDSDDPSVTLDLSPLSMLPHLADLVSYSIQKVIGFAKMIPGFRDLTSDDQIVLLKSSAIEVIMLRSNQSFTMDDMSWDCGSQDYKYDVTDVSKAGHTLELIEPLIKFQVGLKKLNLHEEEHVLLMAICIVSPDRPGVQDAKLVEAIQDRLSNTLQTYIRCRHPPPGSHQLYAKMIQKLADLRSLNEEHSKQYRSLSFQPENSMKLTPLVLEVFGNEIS
Description: Full-length recombinant rat receptor was expressed in E. coli BL21 (DE3) Codon Plus RIL cells and purified to homogeneity using two different column chromatography systems. The first system was a nickel affinity resin that utilizes the C-terminal histidine tag on this protein. The protein that was eluted from this resin was further purified using ion exchange chromatography (S-Sepharose Fast Flow). Aliquots of the purified protein were quick frozen in liquid nitrogen and stored at −80° C. until use. For use in binding assays, the protein was diluted in TEDK50 (50 mM Tris, 1.5 mM EDTA, pH7.4, 5 mM DTT, 150 mM KCl) with 0.1% Chaps detergent. The receptor protein and ligand concentration was optimized such that no more than 20% of the added radiolabeled ligand was bound to the receptor.
Radiolabeled and unlabeled ligands were added to 100 mcl of the diluted protein at a final ethanol concentration of ≦10%, mixed and incubated overnight on ice to reach binding equilibrium. The following day, 100 mcl of hydroxylapatite slurry (50%) was added to each tube and mixed at 10-minute intervals for 30 minutes. The hydroxylapaptite was collected by centrifugation and then washed three times with Tris-EDTA buffer (50 mM Tris, 1.5 mM EDTA, pH 7.4) containing 0.5% Titron X-100. After the final wash, the pellets were transferred to scintillation vials containing 4 ml of Biosafe II scintillation cocktail, mixed and placed in a scintillation counter. Total binding was determined from the tubes containing only radiolabeled ligand.

[5] = tested on: bone calcium mobilization; assay: Bone calcium mobilization (serum calcium) in vitamin D-deficient rats; type: in vivo, Sprague-Dawley rats; conditions: for bone calcium mobilization activity / serum calcium: vitamin D-deficient rats on low calcium diet (0.02%)
Description: as §1

C=C1CC/C(=C/C=C2\CCC[C@]3(C)[C@@H]([C@@H](C)CCCC(C)(C)O)CC[C@@H]23)C[C@H]1O [3-desoxy-2MD, (20S)-3-desoxy-2-methylene-1α,25-dihydroxy-19-nor-vitamin D3]
transcriptional activity in bone cells compared to 1α,25-dihydroxyvitamin D3 [1]: about the same transcriptional activity
EC50 [1]: 300 pM
intestinal calcium transport activity compared to 1,25(OH)2D3 [2]: about one half log less potent; also recorded: at least one half log less potent than 1,25(OH)2D3
EC50 ([3]; Homo sapiens, HL-60, 96 h): 700 pM
binding affinity to vitamin D receptor compared to 1,25-(OH)2D3 [4]: about the same affinity
potency in mobilization of bone calcium relative to native hormone at the same dose ([5]; 780 pmol/day for 4 consecutive days, rats on low calcium diet (0.02%)): about 10 times
potency in releasing bone calcium stores relative to native hormone ([5]; vitamin D-deficient rats, times more potent than 1,25(OH)2D3): at least 10 times

C=C1CC/C(=C/C=C2\CCC[C@]3(C)[C@@H]([C@H](C)CCCC(C)(C)O)CC[C@@H]23)C[C@H]1O [3D-MJ, (20R)-3-desoxy-2-methylene-1α,25-dihydroxy-19-nor-vitamin D3]
transcriptional activity in bone cells compared to 1α,25-dihydroxyvitamin D3 [1]: about the same transcriptional activity
EC50 [1]: 300 pM
intestinal calcium transport activity compared to 1,25(OH)2D3 [2]: about the same potency as 1,25(OH)2D3; also recorded: about as potent
potency on HL-60 cell differentiation compared to 1,25(OH)2D3 [3]: about the same potency as 1,25(OH)2D3
EC50 ([3]; Homo sapiens, HL-60, 96 h): 1000 pM
binding affinity to vitamin D receptor compared to 1,25-(OH)2D3 [4]: about the same affinity
Ki ([4]; read-out: Ki, competition with [3H]-1,25(OH)2D3 for binding to vitamin D receptor): 700 pM
mobilization of bone calcium compared to native hormone at the same dose ([5]; 87 pmol/day for 4 consecutive days): only slightly less mobilization of bone calcium than the native hormone
bone calcium mobilization activity / serum calcium [5]: about the same potency as the native hormone

C=C1/C(=C\C=C2/CCC[C@]3(C)[C@@H]([C@H](C)CCCC(C)(C)O)CC[C@@H]23)C[C@@H](O)C[C@@H]1O [1α,25-dihydroxyvitamin D3, reference compound]
EC50 [3]: 2000 pM
bone calcium mobilization activity / serum calcium [5]: increased serum calcium levels at the dosages tested
